Laboratory results as given in US8114895B2, “Use of bipyridine compound ‘Caerulomycin A’ derivatives and analogs thereof as immunosuppressive agents” (Council of Science and Industrial Research, priority 2005, dated 2012).
“Also recorded” adds a separate entry of the source.

System: BALB/c splenocytes (responder cells) and γ-irradiated C57BL/6J splenocytes (stimulator cells)
Test: Mixed lymphocyte reaction (MLR), [3H]-thymidine incorporation
Type: cell-based, mice
Experimental: The MLR was performed in 96-well tissue culture plates, with each well containing 4×10^5 BALB/c splenocytes (responder cells) and 4×10^5 γ-irradiated (3000R) C57BL/6J splenocytes (stimulator cells) in 200 μl RPMI/FCS-10% medium and with various concentrations of Caerulomycin A (1-0.0125 μg/ml) and Cyclosporin A (0.0125-10 μg/ml). The control cultures consisting of BALB/c splenocytes in medium alone, γ-irradiated C57BL/6J splenocytes and BALB/c splenocytes+γ-irradiated C57BL/6J splenocytes were also kept. After 4 days, the cultures were pulsed with 1 μCi of [^3H]-thymidine and harvested 16 h later by a Skatron cell harvester. Radioactivity incorporated was measured by liquid scintillation counting and data expressed as mean counts per minute (cpm).
Examples establishing the role of Caerulomycin A [isolated from a novel species of Actinoalloteichus] in inducing immunosuppression based on the following: • Splenocytes of BALB/c mice were stimulated with either ConA (1 μg/ml and 2 μg/ml) or LPS (5 μg/ml and 10 μg/ml) and were cultured with different concentrations of Caerulomycin A (0.0003-0.1 μg/ml). […] Radioactivity incorporated was measured by liquid scintillation counting. • Antigen ovalbumin (100 μg/ml) emulsified in Freund's complete adjuvant was injected in a group consisting of 5 BALB/c mice. […] Radioactivity incorporated was measured by liquid scintillation. […]

In the case of `COc1cc(/C=N/O)nc(-c2ccccn2)c1` [Caerulomycin A, (E)-4-methoxy-2,2′-bipyridine-6-carbaldehyde oxime], the “MLR reaction (proliferation)” value (Caerulomycin A 1-0.0125 μg/ml, Cyclosporin A 0.0125-10 μg/ml, 4 days) is reported as “dose dependent inhibition; also recorded: substantially reduced the MLR reaction” and the “potency in inhibiting MLR relative to Cyclosporin A (CsA)” value (similar amount of inhibition of proliferation at a lesser dose than CsA) is reported as 10 fold.
